Assay results from patent US7648985B2, “Oxabispidine compounds and their use in the treatment of cardiac arrhythmias” (AstraZeneca AB, priority 2004, dated 2010).

Biological target: T1, HERG channel (Homo sapiens, UniProt Q12809)
T1 construct: expressed in transfected cells
Experiment: Test B: R^+-Efflux Assay for Detection of HERG Channel Blockers
Assay type: cell-based
Settings: depolarisation-induced Rb+ efflux from Chinese hamster ovary cells stably expressing the HERG-channel; read-out: pIC50 for HERG channel blockade (converted)
Experimental: The IC50 value for HERG channel blockade was determined using a high throughput functional assay based on depolarisation-induced R^+-efflux from Chinese hamster ovary cells stably expressing the HERG-channel.
Cells were grown in Ham F12 (Life Technologies 31765-027) supplemented with 10% FBS and 0.6 mg/mL hygromycin B and were routinely passaged twice-weekly. For experimental studies, cells were plated at a density of 15,000 cells/well in Falcon, 384-well tissue culture-treated black-walled clear-bottomed plates and were thereafter incubated overnight at 37° C. in a cell culture incubator.
Following incubating overnight, cell plates were washed and a Rb^+-Load buffer (a physiological buffer containing Rb^+) was added. Cell plates were then incubated for 3 hours and were thereafter washed. Following this wash, the test compounds were added. The cell plates were then incubated for another 10 minutes and, following this incubation period, external K^+ concentration was increased in order to depolarize the cells and activate HERG channels. After a ten minute exposure period to the increased K^+ concentration, supernatants were transferred to new microplates for subsequent determination of Rb^+ content, using Atomic Absorption Spectrometry analysis. […]
Compound activity was expressed as: […]

T1 sequence (Q12809 whole entry): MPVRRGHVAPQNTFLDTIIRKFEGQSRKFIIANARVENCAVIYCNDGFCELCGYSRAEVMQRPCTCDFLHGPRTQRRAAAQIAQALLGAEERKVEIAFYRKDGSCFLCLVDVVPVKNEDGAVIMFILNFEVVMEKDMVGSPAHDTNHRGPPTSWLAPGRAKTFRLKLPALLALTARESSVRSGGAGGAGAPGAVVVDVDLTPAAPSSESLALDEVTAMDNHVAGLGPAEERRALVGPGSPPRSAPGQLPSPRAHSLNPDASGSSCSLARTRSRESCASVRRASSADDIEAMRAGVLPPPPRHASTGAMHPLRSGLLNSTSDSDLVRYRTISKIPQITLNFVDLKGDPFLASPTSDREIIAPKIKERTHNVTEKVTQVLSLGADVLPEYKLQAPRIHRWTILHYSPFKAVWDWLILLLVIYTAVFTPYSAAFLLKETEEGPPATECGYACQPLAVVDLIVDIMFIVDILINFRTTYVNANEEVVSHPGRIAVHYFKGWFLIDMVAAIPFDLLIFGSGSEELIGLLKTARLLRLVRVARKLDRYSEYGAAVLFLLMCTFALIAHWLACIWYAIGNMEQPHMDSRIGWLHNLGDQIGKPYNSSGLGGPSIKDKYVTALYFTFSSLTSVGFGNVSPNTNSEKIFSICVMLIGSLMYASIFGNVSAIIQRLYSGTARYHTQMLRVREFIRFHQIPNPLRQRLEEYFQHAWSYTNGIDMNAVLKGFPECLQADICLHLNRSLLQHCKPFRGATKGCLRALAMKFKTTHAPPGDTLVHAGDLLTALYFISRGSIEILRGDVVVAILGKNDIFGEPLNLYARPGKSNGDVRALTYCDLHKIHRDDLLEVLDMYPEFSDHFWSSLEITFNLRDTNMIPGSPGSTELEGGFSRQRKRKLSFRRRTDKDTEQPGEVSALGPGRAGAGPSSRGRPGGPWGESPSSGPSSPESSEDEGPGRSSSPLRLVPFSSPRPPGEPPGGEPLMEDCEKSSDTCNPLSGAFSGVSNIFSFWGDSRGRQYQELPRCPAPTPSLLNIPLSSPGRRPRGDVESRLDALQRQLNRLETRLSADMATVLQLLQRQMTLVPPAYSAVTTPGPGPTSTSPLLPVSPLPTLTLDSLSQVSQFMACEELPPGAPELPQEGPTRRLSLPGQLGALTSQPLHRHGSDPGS

With `Cc1noc(C)c1S(=O)(=O)NCCN1CC2CN(CCOc3ccc(C#N)cc3)CC(C1)O2` [Example 9, N-(2-{7-[2-(4-cyanophenoxy)ethyl]-9-oxa-3,7-diazabicyclo[3.3.1]non-3-yl}ethyl)-3,5-dimethylisoxazole-4-sulfonamide] the IC50 was 3.24 µM.
